{"source": "ChEMBL document CHEMBL4130457", "about": "“Discovery of AZD-2098 and AZD-1678, Two Potent and Bioavailable CCR4 Receptor Antagonists” (ACS Med Chem Lett, 2017)", "key": {"[1]": {"test": "Terminal trough concentration in OVA-induced Brown Norway rat plasma at 7.5 umol/kg, po bid measured 12 hrs post last dose", "type": "ADME, organism-based", "settings": "read-out: Cmin"}, "[2]": {"molecular_target": "C-C chemokine receptor type 2 (Homo sapiens) (UniProt P41597)", "sequence (P41597 whole entry, looked up)": "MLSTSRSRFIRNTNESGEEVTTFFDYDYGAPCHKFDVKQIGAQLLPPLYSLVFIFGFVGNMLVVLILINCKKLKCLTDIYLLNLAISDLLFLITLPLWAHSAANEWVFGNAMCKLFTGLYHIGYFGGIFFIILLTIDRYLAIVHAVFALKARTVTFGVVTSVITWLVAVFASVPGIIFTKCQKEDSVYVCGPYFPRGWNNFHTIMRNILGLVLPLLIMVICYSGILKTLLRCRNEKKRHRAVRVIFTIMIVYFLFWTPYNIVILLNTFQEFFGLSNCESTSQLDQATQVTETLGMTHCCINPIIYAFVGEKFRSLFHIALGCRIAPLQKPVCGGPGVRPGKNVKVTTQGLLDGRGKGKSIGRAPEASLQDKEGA", "test": "Antagonist activity at CCR2b (unknown origin) at 10 uM"}, "Rattus norvegicus": {"system": "Rattus norvegicus", "test": "Antiinflammatory activity in OVA-induced Brown Norway rat lung assessed as reduction in alveolitis administered po bid 1 hr prior to antigen challenge and every 12 hrs prior to termination 96 hrs post challenge by histopathological analysis", "type": "functional, organism-based"}, "[3]": {"test": "Half life in dog at 9 umol/kg, po or 3 umol/kg, iv", "type": "ADME, organism-based, Canis lupus familiaris", "settings": "in vivo"}, "[4]": {"test": "Lipophilicity, log P of the compound", "type": "physicochemical", "settings": "octanol/water"}, "[5]": {"molecular_target": "T1, C-C chemokine receptor type 4 (Canis lupus familiaris, UniProt Q8MJW8)", "T1 sequence (Q8MJW8 whole entry)": "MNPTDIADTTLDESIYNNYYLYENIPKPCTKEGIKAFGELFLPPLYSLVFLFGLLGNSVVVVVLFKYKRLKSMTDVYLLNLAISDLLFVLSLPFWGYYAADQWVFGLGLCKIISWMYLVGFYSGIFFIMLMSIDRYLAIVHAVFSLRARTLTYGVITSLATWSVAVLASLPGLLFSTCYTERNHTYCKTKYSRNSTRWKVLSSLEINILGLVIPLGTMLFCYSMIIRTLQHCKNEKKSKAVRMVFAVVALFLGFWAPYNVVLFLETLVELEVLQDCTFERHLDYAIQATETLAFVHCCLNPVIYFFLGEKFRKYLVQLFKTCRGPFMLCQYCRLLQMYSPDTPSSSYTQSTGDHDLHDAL", "test": "Antagonist activity at dog CCR4"}, "[6]": {"test": "Terminal trough concentration in OVA-induced Brown Norway rat plasma at 3 umol/kg, po bid measured 12 hrs post last dose", "type": "ADME, organism-based", "settings": "read-out: Cmin"}, "[7]": {"molecular_target": "T2, C-X-C chemokine receptor type 1 (Homo sapiens) (UniProt P25024)", "T2 sequence (whole entry)": "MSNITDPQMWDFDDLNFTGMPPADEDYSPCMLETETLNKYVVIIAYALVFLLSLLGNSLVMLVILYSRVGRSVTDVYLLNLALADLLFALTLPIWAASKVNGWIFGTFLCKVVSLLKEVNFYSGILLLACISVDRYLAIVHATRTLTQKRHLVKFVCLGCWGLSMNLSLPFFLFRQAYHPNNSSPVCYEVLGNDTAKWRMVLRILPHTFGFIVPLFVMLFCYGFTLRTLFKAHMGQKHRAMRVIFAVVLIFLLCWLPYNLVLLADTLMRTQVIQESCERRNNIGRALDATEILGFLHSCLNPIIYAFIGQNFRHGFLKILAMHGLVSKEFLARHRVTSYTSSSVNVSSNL", "test": "Antagonist activity at CXCR1 (unknown origin) at 10 uM", "type": "functional"}, "[8]": {"test": "Clearance in rat at 9 umol/kg, po or 3 umol/kg, iv", "type": "ADME, organism-based", "settings": "in vivo"}, "[9]": {"test": "Ratio of free plasma concentration in Brown Norway rat at 7.5 umol/kg to pIC50 for recombinant human CCR4 expressed in CHO-K1 cells", "type": "ADME, cell-based", "settings": "in vivo"}, "[10]": {"molecular_target": "C-C chemokine receptor type 5 (Homo sapiens) (UniProt P51681)", "sequence (P51681 whole entry, looked up)": "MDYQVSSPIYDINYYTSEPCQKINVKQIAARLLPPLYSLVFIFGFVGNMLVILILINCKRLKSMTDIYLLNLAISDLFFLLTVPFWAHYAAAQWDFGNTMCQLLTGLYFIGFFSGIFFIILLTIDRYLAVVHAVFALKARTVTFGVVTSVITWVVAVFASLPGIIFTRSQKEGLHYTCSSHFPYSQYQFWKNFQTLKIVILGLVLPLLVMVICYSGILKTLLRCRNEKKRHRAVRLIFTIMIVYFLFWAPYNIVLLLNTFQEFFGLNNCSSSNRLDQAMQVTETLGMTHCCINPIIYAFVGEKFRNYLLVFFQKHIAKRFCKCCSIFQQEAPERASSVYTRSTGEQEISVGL", "test": "Antagonist activity at CCR5 (unknown origin) at 10 uM", "type": "functional"}, "[11]": {"test": "Antagonist activity at rat CCR4"}}, "note": "Active and inactive are the calls of the source. No cut-off for these calls is given here.", "data": [{"smiles": "COc1nccnc1NS(=O)(=O)c1cccc(Cl)c1Cl", "values": [{"measurement": "concentration at 12 h", "setting": "[1]", "result": 140, "unit": "nM"}, {"measurement": "Activity", "setting": "[2]", "result": "inactive"}, {"measurement": "Activity", "setting": "Rattus norvegicus", "result": "Dose-dependent effect"}, {"measurement": "half-life", "setting": "[3]", "result": 60, "unit": "min"}, {"measurement": "logP", "setting": "[4]", "result": 2.5}, {"measurement": "IC50", "setting": "[5]", "result": 25.1, "unit": "nM"}, {"measurement": "concentration at 12 h", "setting": "[6]", "result": 33, "unit": "nM"}, {"measurement": "Activity", "setting": "[7]", "result": "inactive"}, {"measurement": "clearance", "setting": "[8]", "result": 2, "unit": "mL/min/kg"}, {"measurement": "Ratio", "setting": "[9]", "result": 3}, {"measurement": "Activity", "setting": "[10]", "result": "inactive"}, {"measurement": "pIC50", "setting": "[11]", "result": 8}]}]}
